Test results taken from patent US5091409A (priority 1990, dated 1992).
Where a name gives a salt, the structure may show the parent alone. Read-outs that look alike come from different tables or passages of the source.

Key:
carbonic anhydrase = carbonic anhydrase (Homo sapiens, UniProt P00918); assay: carbonic anhydrase inhibition (I50) and Ki, methods of Ponticello et al., J. Med. Chem., 30, 591 (1987); type: biochemical; settings: for IC50: carbonic anhydrase inhibition
intraocular pressure = settings: cited from earlier work
[1] = test system: ocular hypertensive monkey; assay: drop in IOP in the ocular hypertensive monkey (Lee et al., Curr. Eye Res., 4,775-781 (1985)); type: in vivo; settings: 16 hours after treatment
[2] = carbonic anhydrase, main value, read-out: Ki
[3] = value in parentheses, hi = more active component of racemic mixture, read-out: Ki (hi)

Compound	Ki (carbonic anhydrase; [2]) [nM]	Ki (carbonic anhydrase; [3]) [nM]	IC50 (carbonic anhydrase) [nM]	also measured
CC[C@H]1C[C@H](NC)c2cc(S(N)(=O)=O)sc2S1(=O)=O (relative stereo) [Compound 4]	3.6	1.8		
CC[C@@H]1C[C@H](NC)c2cc(S(N)(=O)=O)sc2S1(=O)=O (relative stereo) [Compound 5]	7.1	2.6		
CCC[C@H]1C[C@H](NC)c2cc(S(N)(=O)=O)sc2S1(=O)=O (relative stereo) [Compound 6]	2.1	0.85		
CCC[C@@H]1C[C@H](NC)c2cc(S(N)(=O)=O)sc2S1(=O)=O (relative stereo) [Compound 7]	2.8	0.64		
C=CC[C@H]1C[C@H](NCC)c2cc(S(N)(=O)=O)sc2S1(=O)=O (relative stereo) [Compound 12, trans-6-Allyl-5,6-dihydro-4-ethylamino-4H-thieno[2,3-b]thiopyran-2-sulfonamide-7,7-dioxide hydrochloride]			0.23	
CCN[C@H]1C[C@@H](CC(C)C)S(=O)(=O)c2sc(S(N)(=O)=O)cc21 (relative stereo) [Compound 14]	2.6	0.13		
CC(C)(C)NC[C@H](O)COc1nsnc1N1CCOCC1 [(S)-1-tert-Butylamino[(4-morpholino-1,2,5-thiadiazol-3-yl)oxy]-2-propanol]				local anesthetic properties (intraocular pressure; advantage over many other β-adrenergic blocking agents, background statement): devoid of local anesthetic properties; unwanted side effects (intraocular pressure): devoid of many unwanted side effects associated with pilocarpine
CCC[C@H]1C[C@H](NCC)c2cc(S(N)(=O)=O)sc2S1(=O)=O.Cl [Compound 1, (S,S) (-)5,6-Dihydro-4-ethylamino-6-(n-propyl)-4H-thieno[2,3-b]thiopyran-2-sulfonamide-7,7-dioxide hydrochloride]				drop in IOP [1]: 11.3 mmHg
CCCN[C@H]1C[C@H](CCC)S(=O)(=O)c2sc(S(N)(=O)=O)cc21 [Compound 3]	0.23		0.15	
CCN[C@H]1C[C@H](C)S(=O)(=O)c2sc(S(N)(=O)=O)cc21 [Compound 8]				drop in IOP [1]: 5.6 mmHg
CCN[C@H]1C[C@H](CC)S(=O)(=O)c2sc(S(N)(=O)=O)cc21 [Compound 10]	0.3		0.5	
CCN[C@H]1C[C@@H](CC)S(=O)(=O)c2sc(S(N)(=O)=O)cc21 [Compound 11]	1		0.8	
C=CC[C@@H]1C[C@H](NCC)c2cc(S(N)(=O)=O)sc2S1(=O)=O [Compound 13, cis-6-Allyl-5,6-dihydro-4H-4-ethylaminothieno[2,3-b]thiopyran-2-sulfonamide-7,7-dioxide hydrochloride]	0.4		0.21	drop in IOP [1]: 9.8 mmHg
CNC(=O)Oc1ccc2c(c1)[C@]1(C)CCN(C)[C@@H]1N2C [physostigmine]				effect on intraocular pressure (intraocular pressure; background statement): reduce intraocular pressure
CC[C@@H]1C(=O)OC[C@@H]1Cc1cncn1C [pilocarpine]				effect on intraocular pressure (intraocular pressure; background statement): reduce intraocular pressure
